From patent publication US20220040129A1, “TREATMENT OF HYPERAMMONEMIA IN PATIENTS WITH RENAL INSUFFICIENCY” (RECORDATI S.p.A., priority 2019, published 2022)
Read-outs that look alike come from different tables or passages of the source.

What was measured:
[1] = molecular target: CYP2C9 (Homo sapiens, UniProt P11712); test: In vitro CYP inhibition; assay type: in vitro ADME
[2] = tested on: plasma NH3; conditions: cited from earlier work
[3] = CARIV-A-001 Part B: cross-over IV infusion over 2 hours vs oral tablet 100 mg/kg in healthy subjects; assay type: in vivo, human; parameters: CL, Max / CL, Min: unit not given here; conditions: for HL (Half-life), Max / HL (Half-life), Min: in h; for AUCinf, Max / AUCinf, Min / aucL, Max / aucL, Min: in ng·h/mL
Method: The levels of CGA in plasma and urine were analysed using a fully validated method, which included LC-MS/MS analysis. The PK data were analysed based on a non-compartmental model. A model-based approach was implemented for the characterization of the PK properties of the IV formulation in order to estimate the level of PK exposure after different doses administered with different duration of infusion. The model outcomes provided rationales for supporting decision-making through the dose escalation process. The PK parameters were determined using SAS (version 9.3), and modelling of the PK data was performed using NONMEM (version 7.3, ICON Solutions). PART A: Mono-Centre, Randomized, Successive Groups, Double-Blind, Placebo-Controlled Study in Healthy Male and Female Subjects
Part B was a randomized, double-blind, cross-over, two-sequence study. It was conducted in 12 healthy male and female subjects.
In two treatment periods, separated by a washout of at least two weeks, subjects received a single administration of the study medication in fasting conditions, either as an IV loading dose infusion of Rec0/0491 over 2 hours (started with 6 mg/kg/h then reduced to 4.0 mg/kg/h), or an oral tablet administration of Carbaglu® (100 mg/kg).
Blood samples for PK measurements were collected at 19 timepoints for the IV administration and 17 timepoints for the oral administration. This included a sample prior to intake of the study medication and the period ranging from 20 minutes to 72 hours following the initiation of the IV infusion, and the period ranging from 30 minutes to 72 hours following oral intake. Urine was also collected for PK measurements, at the following intervals relative to the time of administration of the study medication: 0-6, 6-12, 12-24, 24-36 and 36-48 hours.
The PK analysis of Carbaglu was conducted on all subjects showing quantifiable plasma levels using standard non-compartmental approach.

[4] = in most cases, carglumic acid alone, 13 episodes
[5] = second block headed All (N = 5), First 24 hrs
[6] = second block headed All (N = 5), First 48 hrs

CYP2C9, sequence (P11712 whole entry): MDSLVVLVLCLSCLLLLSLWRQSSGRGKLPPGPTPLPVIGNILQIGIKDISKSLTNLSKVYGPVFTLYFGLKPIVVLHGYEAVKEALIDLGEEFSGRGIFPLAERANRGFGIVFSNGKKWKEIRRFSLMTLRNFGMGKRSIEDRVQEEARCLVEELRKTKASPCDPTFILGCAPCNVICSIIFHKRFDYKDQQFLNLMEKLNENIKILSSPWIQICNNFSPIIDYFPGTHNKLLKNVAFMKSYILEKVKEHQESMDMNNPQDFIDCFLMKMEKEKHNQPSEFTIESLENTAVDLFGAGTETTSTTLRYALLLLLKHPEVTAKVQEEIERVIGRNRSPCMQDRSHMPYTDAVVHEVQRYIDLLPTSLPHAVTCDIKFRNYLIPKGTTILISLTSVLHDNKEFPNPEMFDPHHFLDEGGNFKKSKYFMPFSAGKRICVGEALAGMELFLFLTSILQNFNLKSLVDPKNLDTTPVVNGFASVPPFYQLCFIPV

NC(=O)N[C@@H](CCC(=O)O)C(=O)O [carglumic acid, N-carbamoyl-L-glutamic acid]
Inhibition of CYP2C9 [1]: not an inhibitor | Plasma NH3 level, Mean (SD) ([2]; All episodes, First 24 hrs): 94.6 (47.6) micromol/L | Plasma NH3 level, Median ([2]; All episodes, First 24 hrs): 100.0 µmol/L | Plasma NH3 level, Min-Max ([2]; All episodes, First 24 hrs): 43.3 to 187.9 µmol/L | Plasma NH3 level, Q1-Q3 ([2]; All episodes, First 24 hrs): 50.0 to 110.5 µmol/L | Plasma NH3 level, Mean (SD) ([2]; All episodes, First 48 hrs): 80.5 (43.4) micromol/L | Plasma NH3 level, Median ([2]; All episodes, First 48 hrs): 66.0 µmol/L | Plasma NH3 level, Min-Max ([2]; All episodes, First 48 hrs): 32.0 to 187.9 µmol/L | Plasma NH3 level, Q1-Q3 ([2]; All episodes, First 48 hrs): 50.0 to 100.0 µmol/L | Plasma NH3 level, Mean (SD) ([2]; Non-Neonates, First 24 hrs): 106.1 (56.6) micromol/L | Plasma NH3 level, Median ([2]; Non-Neonates, First 24 hrs): 100.0 µmol/L | Plasma NH3 level, Min-Max ([2]; Non-Neonates, First 24 hrs): 47.6 to 187.9 µmol/L | Plasma NH3 level, Q1-Q3 ([2]; Non-Neonates, First 24 hrs): 50.0 to 170.0 µmol/L | Plasma NH3 level, Mean (SD) ([2]; Non-Neonates, First 48 hrs): 81.8 (52.2) micromol/L | Plasma NH3 level, Median ([2]; Non-Neonates, First 48 hrs): 58.0 µmol/L | Plasma NH3 level, Min-Max ([2]; Non-Neonates, First 48 hrs): 32.0 to 187.9 µmol/L | Plasma NH3 level, Q1-Q3 ([2]; Non-Neonates, First 48 hrs): 48.8 to 110.5 µmol/L | Time within which a marked reduction in plasma NH3 levels was observed [2, 4]: ≤ 6 h | Time within which plasma NH3 values were normalized [2, 4]: ≤ 30 h | Plasma NH3 level, Mean (SD) [2, 5]: 78.5 (29.6) micromol/L | Plasma NH3 level, Median [2, 5]: 100.0 µmol/L | Plasma NH3 level, Min-Max [2, 5]: 42.3 to 100.0 µmol/L | Plasma NH3 level, Q1-Q3 [2, 5]: 50.0 to 100.0 µmol/L | Plasma NH3 level, Mean (SD) [2, 6]: 78.5 (29.6) micromol/L | Plasma NH3 level, Median [2, 6]: 100.0 µmol/L | Plasma NH3 level, Min-Max [2, 6]: 42.3 to 100.0 µmol/L | Plasma NH3 level, Q1-Q3 [2, 6]: 50.0 to 100.0 µmol/L | Absolute bioavailability F of the oral vs IV formulation, GeoMean ([3]; 12 subjects): 9.57% | Equivalence of exposure, oral tablet 100 mg/kg vs IV infusion over 2 hours ([3]; 90% confidence limits vs reference limits of 0.8 and 1.25): non-equivalent level of exposure | CL, Max ([3]; IV, 8 mg/kg, N 10): 0.472 | CL, Min ([3]; IV, 8 mg/kg, N 10): 0.225 | Cmax, Max ([3]; IV, 8 mg/kg, N 10): 11700 ng/mL | Cmax, Min ([3]; IV, 8 mg/kg, N 10): 5400 ng/mL | HL (Half-life), Max ([3]; IV, 8 mg/kg, N 10): 52.95 | HL (Half-life), Min ([3]; IV, 8 mg/kg, N 10): 22.85 | AUCinf, Max ([3]; IV, 8 mg/kg, N 10): 35564.90 | AUCinf, Min ([3]; IV, 8 mg/kg, N 10): 16949.96 | aucL, Max ([3]; IV, 8 mg/kg, N 10): 34579.31 | aucL, Min ([3]; IV, 8 mg/kg, N 10): 15713.03 | CL, Max ([3]; IV, 12 mg/kg, N 2): 0.267 | CL, Min ([3]; IV, 12 mg/kg, N 2): 0.192 | Cmax, Max ([3]; IV, 12 mg/kg, N 2): 23500 ng/mL | Cmax, Min ([3]; IV, 12 mg/kg, N 2): 19400 ng/mL | HL (Half-life), Max ([3]; IV, 12 mg/kg, N 2): 42.59 | HL (Half-life), Min ([3]; IV, 12 mg/kg, N 2): 27.23 | AUCinf, Max ([3]; IV, 12 mg/kg, N 2): 62628.03 | AUCinf, Min ([3]; IV, 12 mg/kg, N 2): 45001.41 | aucL, Max ([3]; IV, 12 mg/kg, N 2): 61017.40 | aucL, Min ([3]; IV, 12 mg/kg, N 2): 43281.03 | Cmax, Max ([3]; OR, 100 mg/kg, N 12): 5620 ng/mL | Cmax, Min ([3]; OR, 100 mg/kg, N 12): 1950 ng/mL | HL (Half-life), Max ([3]; OR, 100 mg/kg, N 12): 35.31 | HL (Half-life), Min ([3]; OR, 100 mg/kg, N 12): 17.56 | AUCinf, Max ([3]; OR, 100 mg/kg, N 12): 45696.37 | AUCinf, Min ([3]; OR, 100 mg/kg, N 12): 21852.27 | aucL, Max ([3]; OR, 100 mg/kg, N 12): 44250.17 | aucL, Min ([3]; OR, 100 mg/kg, N 12): 20030.59 | Percent of dose excreted in urine ([3]; after IV administration): 82% | Percent of dose excreted in urine ([3]; after oral administration): 7.5% | CL renal ([3]; both sexes, human, plasma and urine, after IV administration, read-out: Renal clearance (converted)): ~5 mL/min/kg | AUC(0-inf) ([3]; both sexes, human, plasma, iv, 8 mg/kg, IV, 8 mg/kg, N 10, read-out: AUCinf, Mean): 24500 ng·h/mL | AUC(0-inf) ([3]; both sexes, human, plasma, iv, 8 mg/kg, IV, 8 mg/kg, N 10, read-out: AUCinf, Median): 23700 ng·h/mL | clearance ([3]; both sexes, human, plasma, iv, 8 mg/kg, IV, 8 mg/kg, N 10, read-out: CL, Mean (converted)): 5.65 mL/min/kg | clearance ([3]; both sexes, human, plasma, iv, 8 mg/kg, IV, 8 mg/kg, N 10, read-out: CL, Median (converted)): 5.63 mL/min/kg | Cmax ([3]; both sexes, human, plasma, iv, 8 mg/kg, IV, 8 mg/kg, N 10, read-out: Cmax, Mean): 8610 ng/mL
